Laboratory results reported in patent US5760065A, “Anti-HIV agent” (priority 1994, dated 1998).

How the values were obtained:
[1] = literature, qualitative; cited from earlier work
[2] = literature, qualitative; cited from earlier work; remark: listed apart in the source
[3] = literature, qualitative; cited from earlier work; remark: listed apart in the source
[4] = tested on: platelet; conditions: 67th Annual Meeting of the Japanese Pharmacological Society (1994); cited from earlier work
[5] = tested on: HIV (type IIIB); assay: HIV proliferation inhibitory activity: HIV budding from infected U937 cells, evaluated by reverse transcriptase activity; format: cell-based; conditions: 15 min with compound, then 6 h culture
Description: (§1) U937 cells (derived from human lymphocytes) infected with HIV (type IIIB) were cultured in RPMI-1640 medium (Biocell Laboratories) containing Test Compound (I) and 10% fetal bovine serum (FBS) at 37° C. for 15 minutes in a CO2 -incubator. The cultured U937 cells were washed with RPMI-1640 medium and then cultured in RPMI-1640 medium containing 10% FBS at 37° C. for 6 hours in the CO2 -incubator. The degree of inhibition of HIV budding by the test compound was evaluated by the reverse transcriptase activity in a unit culture. Cytotoxicity test was carried out by the MTT method [J. Immunol. Method., 65, 55 (1983)].

[6] = tested on: smooth muscle; conditions: 113th Meeting of the Japanese Society of Veterinary Science (1992); cited from earlier work
[7] = tested on: actin; conditions: 67th Annual Meeting of the Japanese Pharmacological Society (1994); cited from earlier work
[8] = in vitro; format: cell-based; conditions: human, u937 cells, MTT method
Description: as §1

| SMILES | cytotoxicity [1] | antifungal activity [3] | also measured |
| --- | --- | --- | --- |
| COC(CC1OC(=O)CC(O)CCCC(O)C(C)C(OC)c2coc(n2)-c2coc(n2)-c2coc(n2)/C=C/CC(OC)C1C)C(C)CCC(=O)C(C)C(OC)C(C)/C=C/N(C)C=O (centres unmarked) [Kabiramide D] | have cytotoxicity | – | – |
| COCC(OC)C(=O)OC(CCC(C)C(CC1OC(=O)CC(O)CCCC(=O)CC(C)c2coc(n2)-c2coc(n2)-c2coc(n2)/C=C/CC(OC)C1C)OC)C(C)C(OC(C)=O)C(C)/C=C/N(C)C=O (centres unmarked) [Ulpualide B] | have cytotoxicity | – | antibacterial activity [2]: antibacterial activity |
| COC(CC1OC(=O)CC(OC(N)=O)CCCC(O)C(CO)C(OC)c2coc(n2)-c2coc(n2)-c2coc(n2)/C=C/CC(OC)C1C)C(C)CCC(=O)C(C)C(OC)C(C)/C=C/N(C)C=O (centres unmarked) [Kabiramide A] | have cytotoxicity | – | – |
| COC(CC1OC(=O)CC(O)CC=CC(=O)C(C)C(OC)c2coc(n2)-c2coc(n2)-c2coc(n2)/C=C/CCC1C)C(C)CCC(=O)C(C)C(C/C=C/N(C)C=O)OC (centres unmarked) [Isohalichondramide] | have cytotoxicity | antifungal activity | – |
| COC(CC1OC(=O)CC(O)C/C=C/C(=O)C(C)C(OC)c2coc(n2)-c2coc(n2)-c2coc(n2)/C=C/CC(O)C1C)C(C)CCC(=O)C(C)C(C/C=C/N(C)C=O)OC (centres unmarked) [Jaspisamide B] | have cytotoxicity | – | – |
| COC(CC1OC(=O)CC(O)CCCC(=O)C(C)C(OC)c2coc(n2)-c2coc(n2)-c2coc(n2)/C=C/CCC1C)C(C)CCC(=O)C(C)C(OC)C(C)/C=C/N(C)C=O (centres unmarked) [33-Methyldihydrohalichondramide] | have cytotoxicity | – | – |
| COC(CC1OC(=O)CC(O)C/C=C/C(=O)C(C)C(OC)c2coc(n2)-c2coc(n2)-c2coc(n2)/C=C/CC(OC)C1C)C(C)CCC(=O)C(C)C(OC(C)=O)C(C)/C=C/N(C)C=O (centres unmarked) [Mycalolide A] | have cytotoxicity | antifungal activity | – |
| COC(CC1OC(=O)CC(O)CCCC(=O)C(C)C(OC)c2coc(n2)-c2coc(n2)-c2coc(n2)/C=C/CCC1C)C(C)CCC(=O)C(C)C(C/C=C/N(C)C=O)OC (centres unmarked) [Dihydrohalichondramide] | have cytotoxicity | antifungal activity | – |
| COC(CC1OC(=O)CC(O)CC(O)CC(=O)C(C)C(OC)c2coc(n2)-c2coc(n2)-c2coc(n2)/C=C/CCC1C)C(C)CCC(=O)C(C)C(C/C=C/N(C)C=O)OC (centres unmarked) [Jaspisamide A] | have cytotoxicity | – | – |
| COC(CC1OC(=O)CC(O)CC=CC(=O)C(C)C(OC)c2coc(n2)-c2coc(n2)-c2coc(n2)/C=C/CCC1C)C(C)CCC(=O)C(C)C(CCC(=O)O)OC (centres unmarked) [Isohalichondramide (carboxylic acid form)] | have cytotoxicity | antifungal activity | – |
| COC(CC1OC(=O)CC(O)C/C=C/C(=O)C(C)C(OC)c2coc(n2)-c2coc(n2)-c2coc(n2)/C=C/CCC1C)C(C)CCC(=O)C(C)C(OC)C(C)/C=C/N(C)C=O (centres unmarked) [Jaspisamide C] | have cytotoxicity | – | – |
| COC(CC1OC(=O)CC(O)CCCC(=O)CC(C)c2coc(n2)-c2coc(n2)-c2coc(n2)/C=C/CC(OC)C1C)C(C)CCC(=O)C(C)C(OC(C)=O)C(C)/C=C/N(C)C=O (centres unmarked) [Ulpualide A] | have cytotoxicity | – | antibacterial activity [2]: antibacterial activity |
| COC(CC1OC(=O)CC(O)C/C=C/C(=O)C(C)C(OC)c2coc(n2)-c2coc(n2)-c2coc(n2)/C=C/CCC1C)C(C)CCC(=O)C(C)C(C/C=C/N(C)C=O)OC (centres unmarked) [Halichondramide] | have cytotoxicity | antifungal activity | – |
| COC(C)C(=O)OC(CCC(C)C(CC1OC(=O)CC(O)C/C=C/C(=O)C(C)C(OC)c2coc(n2)-c2coc(n2)-c2coc(n2)/C=C/CC(OC)C1C)OC)C(C)C(OC(C)=O)C(C)/C=C/N(C)C=O (centres unmarked) [Mycalolide C] | have cytotoxicity | antifungal activity | – |
| COC(=O)/C=C/CCC(C)C(CC(OC)C(C)CCC(=O)C(C)C(C/C=C/N(C)C=O)OC)OC(=O)CC(O)CC=CC(=O)C(C)C(OC)c1coc(-c2coc(C(N)=O)n2)n1 (centres unmarked) [Isohalichondramide (ester form)] | have cytotoxicity | antifungal activity | – |
| COCC(OC)C(=O)OC(CCC(C)C(CC1OC(=O)CC(O)C/C=C/C(=O)C(C)C(OC)c2coc(n2)-c2coc(n2)-c2coc(n2)/C=C/CC(OC)C1C)OC)C(C)C(OC(C)=O)C(C)/C=C/N(C)C=O (centres unmarked) [Mycalolide B] | have cytotoxicity | antifungal activity | anti-platelet activity [4]: anti-platelet activity; inhibition at 0.1 µM ([5]; Human immunodeficiency virus 1, U-937, 10^-7 M): 71.4%; inhibition at 0.01 µM ([5]; Human immunodeficiency virus 1, U-937, 10^-8 M): 57.1%; inhibition at 0.001 µM ([5]; Human immunodeficiency virus 1, U-937, 10^-9 M): 28.6%; inhibition at 0.0001 µM ([5]; Human immunodeficiency virus 1, U-937, 10^-10 M): 14.3%; inhibitory activity against contraction of smooth muscle [6]: inhibitory activity against contraction of smooth muscle; actin polymerization inhibitory activity [7]: actin polymerization inhibitory activity; cytotoxicity at 0.1 µM ([8]; 10^-7 M): 4.3%; cytotoxicity at 0.01 µM ([8]; 10^-8 M): 2.2%; cytotoxicity at 0.001 µM ([8]; 10^-9 M): 1.5%; cytotoxicity at 0.0001 µM ([8]; 10^-10 M): 0.7% |
| COC(CC1OC(=O)CC(O)CCCC(O)C(C)C(OC)c2coc(n2)-c2coc(n2)-c2coc(n2)/C=C/CCC1C)C(C)CCC(=O)C(C)C(OC)C(C)/C=C/N(C)C=O (centres unmarked) [Tetrahydrohalichondramide] | has cytotoxicity | antifungal activity | – |
| COC(CC1OC(=O)CC(OC(N)=O)CCCC(O)C(C)C(OC)c2coc(n2)-c2coc(n2)-c2coc(n2)/C=C/CC(O)C1C)C(C)CCC(=O)C(C)C(OC)C(C)/C=C/N(C)C=O (centres unmarked) [Kabiramide B] | have cytotoxicity | – | – |
| COC(CC1OC(=O)CC(O)CC=CC(=O)C(C)C(OC)c2coc(n2)-c2coc(n2)C(=O)NC(=O)/C=C/CCC1C)C(C)CCC(=O)C(C)C(C/C=C/N(C)C=O)OC (centres unmarked) [Isohalichondramide (imide form)] | have cytotoxicity | antifungal activity | – |
| COC(CC1OC(=O)CC(OC(N)=O)CCCC(O)C(C)C(OC)c2coc(n2)-c2coc(n2)-c2coc(n2)/C=C/CC(OC)C1C)C(C)CCC(=O)C(C)C(OC)C(C)/C=C/N(C)C=O (centres unmarked) [Kabiramide C] | – | has antifungal activity | – |
| COC(CC1OC(=O)CC(OC(C)=O)CCCC(O)C(C)C(OC)c2coc(n2)-c2coc(n2)-c2coc(n2)/C=C/CC(OC)C1C)C(C)CCC(=O)C(C)C(OC)C(C)/C=C/N(C)C=O (centres unmarked) [Kabiramide E] | have cytotoxicity | – | – |
